Test results taken from US20220133728A1, “METHODS FOR TREATING VITILIGO LESIONS HAVING IMPROVED EFFICACY” (ARCUTIS BIOTHERAPEUTICS, INC., priority 2020, published 2022).

Experiments:
JAK 1 = JAK 1 (Homo sapiens, UniProt P23458); settings: cited from earlier work
vitiligo lesions = test: Proof of Concept, double blind, vehicle-controlled study of ARQ-252 cream 0.3% BID with NB-UVB home phototherapy in non-segmental facial vitiligo; assay type: in vivo, human; settings: applied topically in combination with narrowband UVB phototherapy, compared to vehicle cream plus narrowband UVB
Source text: A Proof of Concept, parallel group, double blind, vehicle-controlled study of the safety and efficacy of a 0.3% SHR0302 topical cream of Example 1 (ARQ-252 cream 0.3%) was designed for subjects with non-segmental facial vitiligo. Subjects with non-segmental facial vitiligo applied either ARQ-252 0.3% cream BID or vehicle cream BID to all affected areas of vitiligo on the face, neck, hands, forearms, and elbows. Product was applied to all affected, depigmented areas and, where anatomically possible, treatment extended approximately 3 cm from the border all around. […]
The two patients were assessed by measures including Facial Vitiligo Area and Severity Index (F-VASI), Facial Body Surface Area (F-BSA), Facial/Neck BSA (F/N-BSA), BSA (Hands, Forearms, Elbows), Facial/Neck VASI (F/N-VASI), VASI of the forearms and elbow (FOREARM-VASI) and VASI of the hands only (HAND-VASI). […] VASI is a quantitative clinical tool that is based on a composite estimate of the overall area of vitiligo patches at baseline and the degree of macular repigmentation within these patches over time. […] BSA affected with vitiligo will be assessed as a percentage of the total BSA, and will be determined to the nearest 0.01% using, as guides, the palm plus 5 digits, with fingers tucked together and thumb tucked to the side (handprint), as 1% BSA and the thumb as 0.1% BSA. […]

Chain of JAK 1 (P23458 whole entry, species assumed): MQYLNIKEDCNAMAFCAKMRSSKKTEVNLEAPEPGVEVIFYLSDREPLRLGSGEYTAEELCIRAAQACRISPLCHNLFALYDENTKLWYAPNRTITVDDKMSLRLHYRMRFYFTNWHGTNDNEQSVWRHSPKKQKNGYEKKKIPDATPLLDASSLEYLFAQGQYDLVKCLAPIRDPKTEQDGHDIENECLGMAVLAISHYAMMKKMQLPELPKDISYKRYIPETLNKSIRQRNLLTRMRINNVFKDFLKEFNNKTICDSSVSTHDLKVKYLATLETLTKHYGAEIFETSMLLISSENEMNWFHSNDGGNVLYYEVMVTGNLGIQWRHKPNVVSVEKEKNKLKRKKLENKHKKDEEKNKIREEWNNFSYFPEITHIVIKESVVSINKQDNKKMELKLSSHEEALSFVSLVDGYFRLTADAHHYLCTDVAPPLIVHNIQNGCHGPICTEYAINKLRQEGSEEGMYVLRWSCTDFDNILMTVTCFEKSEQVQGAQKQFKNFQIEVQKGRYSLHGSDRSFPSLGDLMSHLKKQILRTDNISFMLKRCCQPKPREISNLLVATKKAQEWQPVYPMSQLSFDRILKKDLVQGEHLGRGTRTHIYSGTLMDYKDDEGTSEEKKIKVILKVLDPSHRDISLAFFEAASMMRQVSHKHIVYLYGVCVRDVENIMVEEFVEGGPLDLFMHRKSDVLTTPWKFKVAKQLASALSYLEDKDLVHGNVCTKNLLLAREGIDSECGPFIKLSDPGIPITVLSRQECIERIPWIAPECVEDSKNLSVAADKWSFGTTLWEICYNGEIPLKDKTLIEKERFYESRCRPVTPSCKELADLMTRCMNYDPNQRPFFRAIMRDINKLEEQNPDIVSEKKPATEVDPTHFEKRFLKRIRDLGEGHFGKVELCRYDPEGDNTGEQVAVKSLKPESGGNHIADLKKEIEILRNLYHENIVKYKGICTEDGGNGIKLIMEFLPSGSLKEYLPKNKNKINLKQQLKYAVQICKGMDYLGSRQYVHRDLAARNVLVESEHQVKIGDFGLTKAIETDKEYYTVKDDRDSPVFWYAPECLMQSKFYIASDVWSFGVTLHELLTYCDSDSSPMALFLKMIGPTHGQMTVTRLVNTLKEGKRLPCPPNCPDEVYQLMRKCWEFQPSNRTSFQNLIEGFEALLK

COc1nsc(NC(=O)N2C[C@H]3C[C@H](N(C)c4ncnc5[nH]ccc45)C[C@H]3C2)n1 [SHR0302, (3aR,5S,6aS)—N-(3-methoxyl-1,2,4-thiadiazol-5-yl)-5-(methyl(7H-pyrrolo[2,3-d]pyrimidin-4-yl)amino)hexahydrocyclopenta[c]pyrrole-2(1H)-carboxamide]
inhibition of JAK 1 (JAK 1): potent
selectivity for JAK1 over JAK2 (JAK 1): high selectively for JAK1 over JAK2
repigmentation of vitiligo lesions (vitiligo lesions): dramatically repigmented
